Reference: patent US12303509B2, “Compounds for the treatment of BRAF-associated diseases and disorders” (Pfizer Inc., priority 2020, dated 2025)
pIC50: −log10 of the molar value. Counter-ions that a name gives are not always drawn.

What was measured:
[1] = target: full-length FLAG-tagged B-Raf(V600E) (Homo sapiens (Human), UniProt P15056, V600E); assay: BRAF V600E enzyme assay (TR-FRET competitive displacement); format: binding; details: averaged IC50; TR-FRET tracer displacement, 60 min
Experimental: A competitive displacement assay was configured for B-Raf that monitors the amount of a fluorescently-tagged “tracer” bound to B-Raf via TR-FRET from an anti-tag Eu-labeled antibody also bound to B-Raf. For full-length FLAG-tagged B-Raf(V600E), the assay mixtures consisted of 25 mM K^+HEPES, pH 7.4, 10 mM MgCl2, 0.01% Triton X-100, 1 mM DTT, 2% DMSO (from compound), 50 nM Tracer 1710 (ThermoFisher, PR9176A), 0.5 nM Eu anti-FLAG (M2)-cryptate Ab (Cisbio, 61FG2KLB) and 5 nM full-length, N-terminally FLAG-tagged B-Raf(V600E) (Origene Technologies, TP700031. Compounds were typically diluted in DMSO across an 11-point dosing range created using a 3-fold serial dilution protocol at a top dose of 10 μM. The assay was run in 384-well, polystyrene, low-volume, non-treated, white microtiter plates (Costar 4512) in a final volume of 12 μL. Low control wells included 1 μM of a potent B-Raf inhibitor as a control. The assays were incubated at ambient temperature (typically 22° C.) for 60 min and then read on a PerkinElmer EnVision microplate reader using standard TRF settings (λEx=320 nm, λEm=615 & 665 nm). The ratioed counts (665 nm/615 nm) were converted to percent of control (POC) using the following equation:
[formula] • where: • Xmax Average Uninhibited Controls • Xmin Average Background
A 4-parameter logistic model was the fit to the POC data for each compound. From that fit, the IC50 was estimated and is defined as the concentration of compound at which the best-fit curve crosses 50 POC.

[2] = MDR1 LLC-PK1 and BCRP MDCKII permeability assay: permeability coefficient (Papp); format: in vitro ADME
Text: (§1) Final organic concentration in the assay was 1%.

BCRP = BCRP (Homo sapiens (Human), UniProt Q9UNQ0); assay: BCRP MDCKII permeability assay: efflux ratio; format: in vitro ADME; details: dog
BCRP, sequence (Q9UNQ0 whole entry): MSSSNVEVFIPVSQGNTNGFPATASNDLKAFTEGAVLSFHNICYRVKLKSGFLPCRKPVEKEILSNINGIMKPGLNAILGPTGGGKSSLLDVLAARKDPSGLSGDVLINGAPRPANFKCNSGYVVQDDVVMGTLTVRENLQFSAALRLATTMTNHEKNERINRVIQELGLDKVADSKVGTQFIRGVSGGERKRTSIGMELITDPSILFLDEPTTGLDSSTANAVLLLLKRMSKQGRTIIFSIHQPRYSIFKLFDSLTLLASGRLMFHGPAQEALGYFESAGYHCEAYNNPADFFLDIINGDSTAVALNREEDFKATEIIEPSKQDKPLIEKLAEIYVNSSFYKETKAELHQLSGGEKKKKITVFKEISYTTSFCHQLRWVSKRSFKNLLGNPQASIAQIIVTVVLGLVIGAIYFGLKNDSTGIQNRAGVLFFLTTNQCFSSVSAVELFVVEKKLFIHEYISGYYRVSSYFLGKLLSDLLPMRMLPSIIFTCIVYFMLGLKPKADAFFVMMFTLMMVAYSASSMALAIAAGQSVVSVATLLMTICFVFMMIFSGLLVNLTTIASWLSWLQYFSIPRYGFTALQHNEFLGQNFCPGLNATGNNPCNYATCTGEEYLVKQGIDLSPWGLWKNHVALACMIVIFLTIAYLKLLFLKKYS

A375 cells = assay: Cellular phospho-ERK inhibition assay in A375 cells; format: cell-based; details: Homo sapiens, A-375, A375 cells (head prints A357), 2 hours treatment, read-out: A357 cell IC50
Experimental: A375 and H1755 cells were obtained from the American Type Culture Collection (ATCC, Rockville, MD). A375 cells were maintained in DMEM growth medium containing 10% FBS. H1755 cells were maintained in RPMI growth medium containing 10% FBS.
Cells were harvested according to standard protocols, counted and plated onto flat-bottom, 96-well tissue culture plates (Costar #3599) at 2.5×10^4 cells/well for A375 cells and 1.5×10^4 cells/well for H1755 cells in 100 μL/well of growth medium containing 10% FBS. After an overnight incubation at 37° C. with 5% CO2 cells were treated for 2 hours at 37° C., 5% CO2 with compounds prepared as a 9-point, 1:3.33 fold dilution series with final compound concentrations ranging from 66 pM-10 μM and a constant DMSO concentration of 0.25%. Control wells contained either 0.25% DMSO alone (uninhibited control) or 10 μM binimetinib (complete inhibition control). The levels of phosphorylated ERK are determined using an In Cell Western protocol: following compound incubation, growth medium was discarded, and cells were fixed with 0.4% formaldehyde in PBS for 20 minutes at room temperature. Cells were permeabilized with 100% methanol for 10 minutes at room temperature. Plates were washed with PBS containing 0.05% Tween-20 and blocked for 1 hour at room temperature with LI-COR Blocking Buffer (LI-COR Biosciences; Cat #927-40000). Plates were then incubated for 2 hours at room temperature with 50 μL of a 1:400 dilution of anti-phospho-ERK1/2 (Thr202/Tyr204) (Cell Signaling; Cat #9101) and a 1:1000 dilution of anti-GAPDH (Millipore; Cat #MAB374) in LI-COR blocking buffer containing 0.05% Tween-20. Plates were washed with PBS containing […] Tween-20 then incubated at room temperature for 1 hour with 50 μL of a 1:1000 dilution of anti-rabbit AlexaFluor 680 (Life Technologies; Cat #A21109) and a 1:1000 dilution of anti-mouse IRDye 800CW (LI-COR; Cat #926-32210) in LI-COR blocking buffer containing 0.05% Tween-20. Plates were analyzed by reading on an Odyssey CLx infrared scanner. For each well, the phospho-ERK signal was normalized to the GAPDH signal and converted to POC using the following equation:
[formula] • Where: • Xmax Average Uninhibited Controls • Xmin Average Complete Inhibition Controls IC50 values were then calculated using a 4-parameter fit in XLfit software and are provided in Table A1.

P-gp (MDR1) = P-gp (MDR1) (Homo sapiens (Human), UniProt P08183); assay: MDR1 LLC-PK1 permeability assay: efflux ratio; format: in vitro ADME; details: pig
P-gp (MDR1), sequence (P08183 whole entry, species assumed): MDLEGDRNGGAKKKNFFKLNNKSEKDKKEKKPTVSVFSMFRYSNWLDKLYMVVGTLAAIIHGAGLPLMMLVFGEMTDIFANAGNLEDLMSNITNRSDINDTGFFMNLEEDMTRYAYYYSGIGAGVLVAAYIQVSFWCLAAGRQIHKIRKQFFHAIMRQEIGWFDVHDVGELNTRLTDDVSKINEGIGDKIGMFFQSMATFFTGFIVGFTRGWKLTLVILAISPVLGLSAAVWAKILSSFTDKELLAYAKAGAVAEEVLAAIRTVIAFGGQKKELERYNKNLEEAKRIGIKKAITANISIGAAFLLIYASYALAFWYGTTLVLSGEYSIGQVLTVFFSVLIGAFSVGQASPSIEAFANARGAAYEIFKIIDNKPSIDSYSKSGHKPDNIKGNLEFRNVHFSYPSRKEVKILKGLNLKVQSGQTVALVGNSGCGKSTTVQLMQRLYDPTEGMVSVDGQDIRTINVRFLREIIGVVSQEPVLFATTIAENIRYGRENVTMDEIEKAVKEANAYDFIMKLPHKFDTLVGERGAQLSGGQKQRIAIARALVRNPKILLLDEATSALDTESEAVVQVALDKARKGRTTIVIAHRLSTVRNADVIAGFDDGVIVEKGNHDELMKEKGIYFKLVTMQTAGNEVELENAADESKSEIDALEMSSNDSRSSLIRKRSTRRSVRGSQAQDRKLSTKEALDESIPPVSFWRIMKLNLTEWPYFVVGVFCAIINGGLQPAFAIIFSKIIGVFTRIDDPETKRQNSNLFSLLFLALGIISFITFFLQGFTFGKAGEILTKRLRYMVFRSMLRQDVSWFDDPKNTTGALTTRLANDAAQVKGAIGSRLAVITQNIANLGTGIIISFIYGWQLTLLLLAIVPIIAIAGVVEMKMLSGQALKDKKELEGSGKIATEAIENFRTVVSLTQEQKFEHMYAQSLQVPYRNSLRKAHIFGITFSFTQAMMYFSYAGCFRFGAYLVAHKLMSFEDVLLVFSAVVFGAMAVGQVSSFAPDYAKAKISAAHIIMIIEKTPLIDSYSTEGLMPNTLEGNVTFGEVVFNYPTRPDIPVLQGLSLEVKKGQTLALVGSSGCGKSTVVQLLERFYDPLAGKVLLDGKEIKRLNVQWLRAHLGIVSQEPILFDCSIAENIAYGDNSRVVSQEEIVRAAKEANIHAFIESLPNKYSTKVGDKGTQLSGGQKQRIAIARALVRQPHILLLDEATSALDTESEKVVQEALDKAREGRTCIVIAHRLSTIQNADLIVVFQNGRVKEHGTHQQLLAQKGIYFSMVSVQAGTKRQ
Text: as §1

full-length FLAG-tagged B-Raf(V600E), sequence (P15056 whole entry V600E): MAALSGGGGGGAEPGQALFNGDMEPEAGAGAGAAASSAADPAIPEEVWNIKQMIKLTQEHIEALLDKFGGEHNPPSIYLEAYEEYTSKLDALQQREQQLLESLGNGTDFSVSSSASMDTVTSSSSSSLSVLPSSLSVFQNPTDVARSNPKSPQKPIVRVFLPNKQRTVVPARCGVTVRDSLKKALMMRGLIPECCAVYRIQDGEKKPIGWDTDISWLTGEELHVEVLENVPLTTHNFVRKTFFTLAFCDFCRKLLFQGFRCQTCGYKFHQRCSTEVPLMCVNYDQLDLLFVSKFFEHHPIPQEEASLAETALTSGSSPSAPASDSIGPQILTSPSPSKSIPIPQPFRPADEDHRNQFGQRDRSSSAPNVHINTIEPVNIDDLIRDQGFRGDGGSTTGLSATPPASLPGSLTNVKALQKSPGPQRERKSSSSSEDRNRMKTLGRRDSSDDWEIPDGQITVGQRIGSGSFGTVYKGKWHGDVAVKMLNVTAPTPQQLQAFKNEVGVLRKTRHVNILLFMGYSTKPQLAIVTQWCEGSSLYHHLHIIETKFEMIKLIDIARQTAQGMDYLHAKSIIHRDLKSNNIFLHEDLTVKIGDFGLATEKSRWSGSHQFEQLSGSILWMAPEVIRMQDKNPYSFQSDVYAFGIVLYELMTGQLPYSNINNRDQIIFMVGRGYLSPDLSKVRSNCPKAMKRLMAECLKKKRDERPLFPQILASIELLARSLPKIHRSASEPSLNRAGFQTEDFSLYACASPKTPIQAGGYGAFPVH

| Compound | pIC50 [1] | Papp at 2 h, 1 µM [2] | efflux ratio at 2 h, 1 µM (BCRP) | pIC50 (A375 cells) | efflux ratio at 2 h, 1 µM (P-gp (MDR1)) |
| --- | --- | --- | --- | --- | --- |
| CO[C@H]1CN(S(=O)(=O)Nc2ccc(F)c(Nc3ccc4ncn(C)c(=O)c4c3C)c2Cl)C[C@@H]1F (relative stereo) [Example 78, (trans)-N-(2-chloro-3-((3,5-dimethyl-4-oxo-3,4-dihydroquinazolin-6-yl)amino)-4-fluorophenyl)-3-fluoro-4-methoxypyrrolidine-1-sulfonamide] | 6.94 | 34 ×10⁻⁶ cm/s | 1 | 6.72 | 1.5 |
| Cc1c(Nc2c(F)ccc(NS(=O)(=O)N(C)C3CCOC3)c2Cl)ccc2ncn(C)c(=O)c12 (centres unmarked) [Example 72, N-(2-chloro-3-((3,5-dimethyl-4-oxo-3,4-dihydroquinazolin-6-yl)amino)-4-fluorophenyl)-(N-methyl-N-(tetrahydrofuran-3-yl))-sulfamide] | 6.52 |  |  | 6.71 |  |
| Cc1c(Nc2c(F)ccc(NS(=O)(=O)N(C)C3CC3)c2Cl)ccc2ncn(C)c(=O)c12 [Example 73, N-(2-chloro-3-((3,5-dimethyl-4-oxo-3,4-dihydroquinazolin-6-yl)amino)-4-fluorophenyl)-(N-cyclopropyl-N-methyl)-sulfamide] | 6.63 |  |  | 6.92 |  |
| Cc1c(Nc2c(F)ccc(NS(=O)(=O)N(C)C3CCC3)c2Cl)ccc2ncn(C)c(=O)c12 [Example 74, N-(2-chloro-3-((3,5-dimethyl-4-oxo-3,4-dihydroquinazolin-6-yl)amino)-4-fluorophenyl)-(N-cyclobutyl-N-methyl)-sulfamide] | 6.69 |  |  | 6.80 |  |
| COC1CCN(S(=O)(=O)Nc2ccc(F)c(Nc3ccc4ncn(C)c(=O)c4c3C)c2Cl)CC1 [Example 75, N-(2-chloro-3-((3,5-dimethyl-4-oxo-3,4-dihydroquinazolin-6-yl)amino)-4-fluorophenyl)-4-methoxypiperidine-1-sulfonamide trifluoroacetate] | 6.72 |  |  | 6.94 |  |
| Cc1c(Nc2c(F)ccc(NS(=O)(=O)N3CCC(C(F)(F)F)C3)c2Cl)ccc2ncn(C)c(=O)c12 (centres unmarked) [Example 76, N-(2-chloro-3-((3,5-dimethyl-4-oxo-3,4-dihydroquinazolin-6-yl)amino)-4-fluorophenyl)-3-(trifluoromethyl)pyrrolidine-1-sulfonamide trifluoroacetate] | 6.74 |  |  | 6.21 |  |
| Cc1c(Nc2c(F)ccc(NS(=O)(=O)N3CCC(O)CC3)c2Cl)ccc2ncn(C)c(=O)c12 [Example 77, N-(2-chloro-3-((3,5-dimethyl-4-oxo-3,4-dihydroquinazolin-6-yl)amino)-4-fluorophenyl)-4-hydroxypiperidine-1-sulfonamide trifluoroacetate] | 6.75 |  |  | 6.90 |  |
| Cc1c(Nc2c(F)ccc(NS(=O)(=O)N3CCC4CC4C3)c2Cl)ccc2ncn(C)c(=O)c12 (centres unmarked) [Example 80] | 6.99 |  | 0.6 | 6.51 |  |
| Cc1c(Nc2c(F)ccc(NS(=O)(=O)N3CC4CCC3C4)c2Cl)ccc2ncn(C)c(=O)c12 (centres unmarked) [Example 81, N-(2-chloro-3-((3,5-dimethyl-4-oxo-3,4-dihydroquinazolin-6-yl)amino)-4-fluorophenyl)-2-azabicyclo[2.2.1]heptane-2-sulfonamide trifluoroacetate] | 7.12 |  |  | 6.88 |  |
| Cc1c(Nc2c(F)ccc(NS(=O)(=O)N3CC4(CCC4)C3)c2Cl)ccc2ncn(C)c(=O)c12 [Example 157, N-(2-chloro-3-((3,5-dimethyl-4-oxo-3,4-dihydroquinazolin-6-yl)amino)-4-fluorophenyl)-2-azaspiro[3.3]heptane-2-sulfonamide trifluoroacetate] |  | 23 ×10⁻⁶ cm/s | 1.2 | 6.05 | 1.2 |

Now from value to molecule:

| pIC50 [1] | Papp at 2 h, 1 µM [2] | efflux ratio at 2 h, 1 µM (BCRP) | pIC50 (A375 cells) | efflux ratio at 2 h, 1 µM (P-gp (MDR1)) | Compound |
| --- | --- | --- | --- | --- | --- |
|  | 16 ×10⁻⁶ cm/s | 3.9 | 7.35 | 2.6 | Cn1cnc2ccc(Nc3c(F)ccc(NS(=O)(=O)N4CC(OC(F)F)C4)c3Cl)c(Cl)c2c1=O [Example 143, N-(2-chloro-3-((5-chloro-3-methyl-4-oxo-3,4-dihydroquinazolin-6-yl)amino)-4-fluorophenyl)-3-(difluoromethoxy)azetidine-1-sulfonamide] |
| 8.00 | 27 ×10⁻⁶ cm/s |  | 7.48 | 5.2 | Cn1cnc2ccc(Nc3c(F)ccc(NS(=O)(=O)N4CC(OC(F)F)C4)c3Cl)c(F)c2c1=O [Example 144, N-(2-chloro-4-fluoro-3-((5-fluoro-3-methyl-4-oxo-3,4-dihydroquinazolin-6-yl)amino)phenyl)-3-(difluoromethoxy)azetidine-1-sulfonamide] |
| 7.57 | 17 ×10⁻⁶ cm/s |  | 7.51 | 6.9 | Cc1c(Nc2c(F)ccc(NS(=O)(=O)N3CC(C#N)C3)c2Cl)ccc2ncn(C)c(=O)c12 [Example 146, N-(2-chloro-3-((3,5-dimethyl-4-oxo-3,4-dihydroquinazolin-6-yl)amino)-4-fluorophenyl)-3-cyanoazetidine-1-sulfonamide trifluoroacetate] |
| 7.72 | 28 ×10⁻⁶ cm/s |  | 7.17 | 1 | Cc1c(Nc2c(F)ccc(NS(=O)(=O)N3CC(C)C3)c2Cl)ccc2ncn(C)c(=O)c12 [Example 147, N-(2-chloro-3-((3,5-dimethyl-4-oxo-3,4-dihydroquinazolin-6-yl)amino)-4-fluorophenyl)-3-methylazetidine-1-sulfonamide trifluoroacetate] |
| 7.15 |  |  | 6.51 |  | Cc1c(Nc2c(F)ccc(NS(=O)(=O)N3CCC4CC43)c2Cl)ccc2ncn(C)c(=O)c12 (centres unmarked) [Example 153, N-(2-chloro-3-((3,5-dimethyl-4-oxo-3,4-dihydroquinazolin-6-yl)amino)-4-fluorophenyl)-2-azabicyclo[3.1.0]hexane-2-sulfonamide trifluoroacetate] |
| 6.69 |  |  | 6.06 |  | Cc1c(Nc2c(F)ccc(NS(=O)(=O)N3CC(COC(F)(F)F)C3)c2Cl)ccc2ncn(C)c(=O)c12 [Example 156, N-(2-chloro-3-((3,5-dimethyl-4-oxo-3,4-dihydroquinazolin-6-yl)amino)-4-fluorophenyl)-3-((trifluoromethoxy)methyl)azetidine-1-sulfonamide trifluoroacetate] |
| 6.94 |  |  | 5.89 |  | Cc1c(Nc2c(F)ccc(NS(=O)(=O)N3CC(OC(F)(F)F)C3)c2Cl)ccc2ncn(C)c(=O)c12 [Example 162, N-(2-chloro-3-((3,5-dimethyl-4-oxo-3,4-dihydroquinazolin-6-yl)amino)-4-fluorophenyl)-3-(trifluoromethoxy)azetidine-1-sulfonamide] |
| 6.95 |  |  | 5.85 |  | Cc1c(Nc2c(F)ccc(NS(=O)(=O)N3CC(COCF)C3)c2Cl)ccc2ncn(C)c(=O)c12 [Example 164, N-(2-chloro-3-((3,5-dimethyl-4-oxo-3,4-dihydroquinazolin-6-yl)amino)-4-fluorophenyl)-3-((fluoromethoxy)methyl)azetidine-1-sulfonamide trifluoroacetate] |
